In a melting point compilation (Tetko et al.; mined from patent text by program, amines drawn as free bases though some values may be those of a salt):

**Q.** With `CCCCCCCCc1ccc(-c2cnc(-c3ccc(O)cc3F)nc2)cc1` as the molecule, how does the melting point read?
**A.** 167 °C

**Q.** For `COCC(C)(C)C(=O)O[C@H]1C[C@H](O)C=C2C=C[C@H](C)[C@H](CC[C@@H]3C[C@@H](O)CC(=O)O3)[C@H]21`, which melting point is on record?
**A.** 140 to 142 °C

**Q.** With `Cc1ncnc(O)c1C` as the molecule, how does the melting point read?
**A.** 120 to 121 °C

**Q.** Which melting point does the source give for `O=c1[nH]c(NCCSCc2cccs2)ncc1Cc1cccnc1` here?
**A.** 145 to 148 °C

**Q.** With `CC(C)[C@H](NC(=O)N(C)Cc1ccccn1)C(=O)N[C@@H](Cc1ccccc1)[C@@H](O)[C@@H](O)[C@H](Cc1ccccc1)NC(=O)OC(C)(C)C` as the molecule, how does the melting point read?
**A.** 91 to 93 °C

**Q.** With `COc1ccc(C2CNC(=O)C2)cc1OC` (stereo unspecified) as the molecule, how does the melting point read?
**A.** 120 °C

**Q.** With `O=c1c(I)coc2ccccc12` as the molecule, how does the melting point read?
**A.** 95 to 97 °C

**Q.** Which melting point does the source give for `Cc1nc(C)c(CCl)cc1CCl` here?
**A.** 108 to 109 °C

**Q.** Which melting point does the source give for `CCCCCCCCCCCCCCCCc1c(O)c(CN(C)C(=O)Oc2cccc([N+](=O)[O-])c2)c(CCC)c(O)c1CN(C)C(=O)Oc1cccc([N+](=O)[O-])c1` here?
**A.** 89 to 95 °C

**Q.** For `COc1ccccc1Cc1n[nH]c2c1c(=O)n(-c1cccc(C(F)(F)F)c1)c1ncccc21`, which melting point is on record?
**A.** 229 to 231 °C

**Q.** With `CN(C)C(=S)C(O)c1ccccc1C(F)(F)F` (stereo unspecified) as the molecule, how does the melting point read?
**A.** 112 to 115 °C

**Q.** With `O=S(=O)(Nc1ccc(I)cc1)N1CCOCC1` as the molecule, how does the melting point read?
**A.** 91 °C

**Q.** With `CCc1nnc(N2N=C(c3ccc([N+](=O)[O-])cc3)c3cc4c(cc3C[C@H]2C)OCO4)s1` as the molecule, how does the melting point read?
**A.** 105 °C

**Q.** With `CC(c1ccc(Cl)cc1)N1C(=O)CC(Br)C1=O` (stereo unspecified) as the molecule, how does the melting point read?
**A.** 96 °C

**Q.** For `COc1ccc(C2Sc3ccccc3NC(=O)C2OC(C)=O)cc1` (stereo unspecified), which melting point is on record?
**A.** 193 to 195 °C

**Q.** For `CCOC(=O)c1nn(Cc2ccc(Cl)c(Cl)c2)c(-c2ccc(Cl)cc2)c1C`, which melting point is on record?
**A.** 118 °C

**Q.** For `CCCN(Cc1csc(C(C)C)n1)C(=O)N[C@H](C(=O)N[C@@H](Cc1ccccc1)C[C@H](O)[C@H](Cc1ccccc1)NC(=O)OCc1cncs1)C(C)C`, which melting point is on record?
**A.** 62 to 64 °C

**Q.** With `CCOC(=O)/C=C/c1ccc(OCC)nc1Oc1ccc(Cl)cc1Cl` as the molecule, how does the melting point read?
**A.** 90 to 92 °C

**Q.** Which melting point does the source give for `CCC(C)C(C)C(=O)Nc1ccc2c(C)cn3c(=O)c(C(=O)Nc4nnn[nH]4)cnc3c2c1` (stereo unspecified) here?
**A.** > 300 °C

**Q.** With `Cc1ccc(C)c(-c2cccc(C=CC(=O)O)c2)c1` as the molecule, how does the melting point read?
**A.** 156 to 157 °C

**Q.** Which melting point does the source give for `NC(=NC(=O)c1nc(Cl)c(N)nc1N)NCCCCCCCCCCCC(=O)Nc1ncc[nH]1` here?
**A.** 102 to 104 °C

**Q.** For `CC1CN(c2cc3c(cc2F)C(=O)c2nc4ccccc4c(=O)n2-3)CCN1C(=O)OC(C)(C)C` (stereo unspecified), which melting point is on record?
**A.** 234 to 237 °C

**Q.** Which melting point does the source give for `O=C1c2c(Cl)cccc2-n2cnc(-c3nnc(CCl)o3)c2[C@@H]2CCN12` here?
**A.** 185 to 189 °C

**Q.** With `O=C1Nc2cc(Br)ccc2Oc2cscc21` as the molecule, how does the melting point read?
**A.** 245 to 249 °C

**Q.** With `CSCC(C)NC(=O)c1c(I)cccc1C(=O)Nc1ccc(C2(c3ccc(Cl)cc3)CC2(F)F)cc1C` (stereo unspecified) as the molecule, how does the melting point read?
**A.** 229 to 232 °C

**Q.** Which melting point does the source give for `CCOC(=O)c1c(Cl)nc2ccc(Br)cc2c1Cl` here?
**A.** 120 to 121 °C

**Q.** With `CC(C(=O)C(C)(C)CF)n1cncn1` (stereo unspecified) as the molecule, how does the melting point read?
**A.** 62 to 78 °C

**Q.** With `CC(=O)N1CCN(c2ccc(N)c(C)c2)CC1` as the molecule, how does the melting point read?
**A.** 126 to 129 °C

**Q.** For `COc1cccc(CCN2C(=O)c3ccccc3C2(O)c2cccnc2)c1` (stereo unspecified), which melting point is on record?
**A.** 97 °C

**Q.** For `NC(=O)CC1CCC(OCc2ccccc2)c2sccc21` (stereo unspecified), which melting point is on record?
**A.** 139 to 143 °C

**Q.** For `COC(=O)N1c2ccccc2Sc2nccnc21`, which melting point is on record?
**A.** 137 to 138 °C

**Q.** For `O=C(O)c1nc2n(n1)-c1cccnc1N(c1ccccc1Cl)C2`, which melting point is on record?
**A.** 155 to 163 °C

**Q.** For `Nc1cccc(Oc2cccc(Oc3cccc(N)c3)n2)c1`, which melting point is on record?
**A.** 118 to 120 °C

**Q.** For `Cc1[nH]c2ccc(CCN3CCCCC3)cc2c1C(=O)OCc1ccccc1`, which melting point is on record?
**A.** 159 to 161 °C

**Q.** For `COc1ccc2c(c1)nnc1cc(OC)ccc12`, which melting point is on record?
**A.** 200 to 202 °C

**Q.** For `Oc1cccc(-c2nc3n(n2)Cc2ccccc2-3)c1`, which melting point is on record?
**A.** 251 to 252 °C

**Q.** With `O=C1CCCC(c2ccccc2)(c2ccccc2)N1` as the molecule, how does the melting point read?
**A.** 193 to 196 °C

**Q.** Which melting point does the source give for `NC(=O)NN=Cc1ccc(OC2CCCCCC2)cc1` here?
**A.** 215 to 216 °C

**Q.** For `COc1cccc2c1C(=O)c1c(OC)cc(C(=O)N(C)O)cc1C2=O`, which melting point is on record?
**A.** 182 °C

**Q.** With `CS(=O)(=O)NC1CCN(Cc2ccccc2)CC1` as the molecule, how does the melting point read?
**A.** 135 to 136 °C

**Q.** For `CCCCCCCCCCCCCCCCCCOc1cccc(CC(=O)N(CC(=O)OC)CC(=O)OC)c1`, which melting point is on record?
**A.** 52 to 55 °C

**Q.** Which melting point does the source give for `C/C(CCN1CCCC1c1ccc(Cl)c(Cl)c1)=N\O` (stereo unspecified) here?
**A.** 145 to 147 °C

**Q.** For `Cc1cc(CO)ccc1NC(=O)CN(C(=O)OC(C)(C)C)c1ccc(F)c(F)c1`, which melting point is on record?
**A.** 134 to 136 °C

**Q.** Which melting point does the source give for `N#Cc1ccc(N2CC=C(N3CCCC3)CC2)cc1` here?
**A.** 126 to 129 °C

**Q.** Which melting point does the source give for `Fc1cccc(Cl)c1C1C=C(c2ccc(Cl)cc2)Nc2ncnn21` (stereo unspecified) here?
**A.** 213 to 215 °C

**Q.** With `CCOC(=O)C(C)(C)c1ccc(C(O)CCCN2CCC(=C3c4ccccc4CCc4ccccc43)CC2)cc1` (stereo unspecified) as the molecule, how does the melting point read?
**A.** 142 to 144 °C

**Q.** With `CCCCc1oc2ccccc2c1C(O)c1ccc(O)cc1` (stereo unspecified) as the molecule, how does the melting point read?
**A.** 94 to 96 °C

**Q.** For `COc1ccccc1NS(=O)(=O)c1ccc(N2CCNC2=O)cc1`, which melting point is on record?
**A.** 209 to 211 °C

**Q.** Which melting point does the source give for `CON(C)C(=O)CCCCCCNC(=O)c1cn2c3c(cccc13)CCC2` here?
**A.** 61 to 62 °C

**Q.** With `O=C(O)CCc1ccccc1OCCC(c1ccccc1)(c1ccccc1)c1ccccc1` as the molecule, how does the melting point read?
**A.** 118 to 120 °C

**Q.** Which melting point does the source give for `COC(=O)Cc1nc(-c2ccc(OC)c(OC)c2)c2cc(OC)c(OC)cc2n1` here?
**A.** 152 to 153 °C

**Q.** Which melting point does the source give for `CCOC(=O)CS(=O)(=O)Cc1cccc(-c2c(CC(=O)Nc3ccc(F)cc3C(F)(F)F)c(=O)oc3cc(Cl)c(C)cc23)c1` here?
**A.** 230 to 231 °C

**Q.** For `CN1C(=O)CCC2(C)c3ccc(Sc4ccccc4F)cc3CCC12` (single isomer, unassigned; (+)), which melting point is on record?
**A.** 100 to 103 °C

**Q.** Which melting point does the source give for `CC1Oc2ccc([N+](=O)[O-])cc2O1` (stereo unspecified) here?
**A.** 84 to 95 °C

**Q.** For `COc1nc(OC)nc(N(C)C(=O)NS(=O)(=O)c2ccccc2C(F)F)n1`, which melting point is on record?
**A.** 164 to 170 °C

**Q.** With `CN1CCN(CC2=NC(NC(=O)OCc3ccccc3)C(=O)N(C(C)(C(N)=O)c3ccccc3)c3ccccc32)CC1` (stereo unspecified) as the molecule, how does the melting point read?
**A.** 65 to 70 °C

**Q.** For `COc1cccc2c(Cl)c(C)c(C)nc12`, which melting point is on record?
**A.** 130 °C

**Q.** For `N#Cc1ccc(Nc2cccc(I)c2)c(N)c1`, which melting point is on record?
**A.** 170 to 172 °C

**Q.** With `CC1(C)c2c(ccc3cc(C(N)=O)c(Cn4cncn4)cc23)OC1O` (stereo unspecified) as the molecule, how does the melting point read?
**A.** 223 to 225 °C

**Q.** For `CCCC(c1ccccc1)c1c(O)c2c(oc1=O)CCCCCC2` (stereo unspecified), which melting point is on record?
**A.** 173 to 175 °C

**Q.** Which melting point does the source give for `O=C(c1ccccc1)N1CCN(c2ccccc2)CCN1C(=O)c1ccccc1` here?
**A.** 190 to 192 °C

**Q.** Which melting point does the source give for `CCOc1ccc(-c2nnc(C(N)=O)o2)cc1` here?
**A.** 188 °C

**Q.** Which melting point does the source give for `Cc1c(-c2ccc(Cl)c(C(=O)N(C)C)c2)sc2nc(N)[nH]c(=O)c12` here?
**A.** 300 to 320 °C

**Q.** With `N=C(NC(=O)c1ccccc1)Oc1ccccc1` as the molecule, how does the melting point read?
**A.** 125 °C

**Q.** For `O=C(Nc1cccc(-c2ccnc3c(C(=O)c4cccs4)cnn23)c1)c1ccncc1`, which melting point is on record?
**A.** 220 to 222 °C

**Q.** Which melting point does the source give for `O=S(=O)(CC(F)(F)F)Nc1ccc(Oc2ccc(F)cc2F)cc1` here?
**A.** 105 to 108 °C

**Q.** Which melting point does the source give for `CS(=O)(=O)NCCCCC(=O)Nc1nc2c(s1)CCCc1ccc(F)cc1-2` here?
**A.** 145 to 147 °C

**Q.** Which melting point does the source give for `Cn1nc(-c2ccc(S(C)(=O)=O)cc2)c2ccccc2c1=O` here?
**A.** 218 to 220 °C

**Q.** With `Cc1c2cnccc2c(C)c2c1c1cc(O)ccc1n2C` as the molecule, how does the melting point read?
**A.** 337 to 338 °C

**Q.** With `CS(=O)(=O)c1ccc(C(=O)CC(=O)C2CC2)c(Cl)c1-c1nccs1` as the molecule, how does the melting point read?
**A.** 146 to 147 °C

**Q.** With `N#Cc1cnn2c(C(F)(F)F)cc(-c3ccncc3)nc12` as the molecule, how does the melting point read?
**A.** 233 °C
